Experimental data: patent US20170260169A1, “INHIBITORS FOR STEROID RESPONSE ELEMENTS AND RNA POLYMERASE II AND RELATED METHODS” (priority 2007, published 2017)

Assays:
[1] = tested on: ARE of the PSA promoter; assay: Quantitative DNase I footprint titration on pAR-PSA fragment; assay type: binding
From the text: Plasmid pAR-PSA was constructed by inserting a 70-bp sequence from the PSA promoter containing the ARE into pUC19 plasmid. […] Detailed experimental protocols are reported elsewhere (44). The proximal PSA promoter contains the ARE [NT] ID NO:15) (FIG. 8A). […] However, 1 is observed to bind the sequence [NT]≈12 bp 5' to the ARE, which is an expected binding site for this molecule.

[2] = tested on: AR occupancy at the PSA promoter and enhancer; assay: Chromatin immunoprecipitation with anti-AR, PSA promoter and enhancer; assay type: cell-based
Procedure: LNCaP cells were plated in 15-cm diameter plates at a density of 2×10^6 cells per plate. Media, polyamide treatment, time course, and DHT stimulation were the same as described above. After the 16-h DHT treatment, cells were treated with 1% formaldehyde for 10 min. Chromatin was isolated and sheared. Antibodies to AR (AR-20, Santa Cruz Biotechnology, Santa Cruz, Calif.) were used to immunoprecipitate AR-bound DNA fragments. Crosslinks were reversed, and PCRs using primers targeted to the regions of interest were used to assess enrichment of bound fragments as compared with mock-precipitated (no antibody) controls. PCRs were monitored with SYBR Green PCR Master Mix (Applied Biosystems) on an ABI 7300 instrument. Primer sequences and a more detailed experimental protocol are available upon request.

[3] = tested on: transcripts in DHT-stimulated LNCaP cells; assay: Gene expression with Affymetrix Human Genome U133 Plus 2.0 arrays, DHT-stimulated LNCaP cells; assay type: cell-based
Procedure: LNCaP cells were plated in 12-well plates at a density of 80-100×10^3 cells per well. Media, polyamide treatments, and time courses were the same as described above. Bicalutamide was added 2 h before DHT stimulation. RNA was isolated as described in ref. 21. From this point, experiments were carried out at the Millard and Muriel Jacobs Gene Expression Facility at the California Institute of Technology. Labeled mRNA was hybridized to Affymetrix high-density Human Genome U133 Plus 2.0 arrays according to established protocols. Gene expression was analyzed by using Resolver (Rosetta Biosoftware, Seattle, Wash.). Data were uploaded to the Gene Expression Omnibus repository (accession no. GSE7708).
Global effects of polyamides 1 and 2 and bicalutamide on gene expression in DHT-stimulated LNCaP cells were monitored with Affymetrix (Santa Clara, Calif.) high-density Human Genome U133 Plus 2.0 arrays, which interrogate >50,000 transcripts.

[4] = tested on: GILZ enhancer GRE1; assay: Quantitative DNase I footprint titration on pKAM5 fragment, GRE1; assay type: binding
Procedure: Detailed experimental protocols are reported elsewhere (44). The GILZ enhancer contains two GREs separated by 22 base pairs (46). GRE 1 is 5'-[NT]=3' (SEQ ID NO:5) and GRE 2 is […] ID NO:7). The DNA binding of polyamides 1 and 2 on these sequences was measured by quantitative DNase I footprint. […] […]).

[5] = tested on: RNAP2 genomic occupancy; assay: ChIP-seq of RNA polymerase II occupancy in LNCaP cells; assay type: cell-based, human
[6] = tested on: LNCaP cells; assay: Cell viability WST-1 assay; assay type: cell-based; conditions: LNCaP
Procedure: LNCaP cells were plated in clear bottom 96 well plates at 5,000-7,500 cells per well. The cells were allowed to adhere for 24-36 h before compounds were added in fresh media. Cell viability was determined by the WST-1 assay (Roche) for 77 and 85 after 24 h or 72 h incubation with cells. Cells in cytotoxicity rescue experiments were treated with 85 alone or with 3 μM for 24 h.
LNCaP cells were plated in clear bottom 96-well plates at 5,000-7,500 cells per well and allowed to adhere for 36-48 h. Compounds were then added in fresh media. Cell metabolic activity was determined by the WST-1 assay (Roche) after 72-h incubation with cells. Quantification was performed on a Perkin Elmer Victor 3 plate reader. Assays were performed in biological triplicates.

[7] = tested on: LNCaP xenografts; assay: LNCaP xenografts in male NSG mice; assay type: in vivo
Procedure: All mice experiments were conducted under an approved protocol by the Institutional Animal Care and Use Committee of the California Institute of Technology. Male NOD scid gamma (NSG) mice were purchased from The Jackson Laboratory. The animals were individually caged and maintained on a standard light-dark cycle. NSG mice were engrafted with LNCaP cells (2.5 million cells) in a mixture of 1:1 media and matrigel in the left flank. Tumors were grown to ˜100 mm^3 (L×W^2) before beginning treatment with compound or vehicle. Py-Im polyamide 77 was administered once every 3 days in a 5% DMSO:PBS vehicle solution until the experiment endpoint.
To investigate if polyamide 77 could be detected in peripheral blood after SC injections, 120 nmol of 77 (in 5% DMSO/PBS) was injected into the right flank of four C57BL/6 mice. Blood was collected from anesthetized mice via retroorbital collection at 5 minutes, 4 h, and 12 h after injection, then processed by methods previously described and analyzed by HPLC (35). For measurement of serum PSA (KLK3) and uric acid, blood was collected from anesthetized mice via retroorbital collection at experimental endpoint and serum was separated from blood by centrifugation. Serum PSA (KLK3) was measured by ELISA (R&D systems) according to manufacturer's instructions. Uric acid was measured as described (36).
Tumors were resected immediately after euthanasia and fixed in neutral buffered formalin. Selected samples were embedded in paraffin, sectioned and stained with hematoxylin and eosin (H&E). Selected sections were assessed by deoxynucleotidyltransferase dUTP nick-end labeling (TUNEL) as described (45).
Mice experiments were conducted under an approved protocol by the Institutional Animal Care and Use Committee of the California Institute of Technology. Male C57BL6/J mice and male NSG mice were purchased from The Jackson Laboratory. All animals were maintained on a standard light-dark cycle. LNCaP cells (2.5 million cells) were engrafted in a mixture of 1:1 media and matrigel in the left flank of NSG mice. Tumors were allowed grow to ˜200 mm^3 (0.5×L×W^2) before treatment. Py-Im polyamide 78 was administered by SC injection once every 3 d at 1 mg/kg in a 20% (vol/vol) DMSO:Normal saline vehicle solution for 6 injections. Animals were sacrificed two days after the final injection. Animal weight and general health were monitored daily. Fourteen animals were used for each treatment group.

[8] = Escalating single dose subcutaneous injections, male C57BL/6J mice (weight, histopathology, serum)
Procedure: Representative mice (n=2 per dosing group unless otherwise noted) were subjected to histopathology analysis by a veterinary pathologist. Blood from all mice was sampled and sent for analysis of serum markers of target organs. […] These mice were euthanized when significant duress was apparent.
All animal experiments were conducted under an approved protocol at the California Institute of Technology. Animals were allowed to adjust for 3 days after arrival before treatment. […] Animals were monitored daily for weight loss over 9 days and sacrificed. […] Weight was recorded on days of injection and at the experiment endpoint.
Sacrificed animals from weight loss experiments were fixed in 10% formalin and sent for histopathology analysis by IDEXX-RADIL. Histopathologic analysis was performed on the cecum, duodenum, heart, ileum, kidney, liver, lung, pancreas, spleen, and stomach. Tissue analysis was performed as a blind study to the identity of the animals.
Serum from treated animals were collected by retroorbital bleeding. Blood samples were centrifuged at 6,000 rpm for 5 min to collect the serum. Serum ALT, AST, total bilirubin, BUN, and creatinine levels were sent for analysis by IDEXX-RADIL. Serum analysis was performed as a blind study to the identity of the animals.

[9] = 10 μM, + DHT, relative to DHT-induced controls, p ≦ 0.01
[10] = relative to DHT-induced controls, + DHT
[11] = 20 nmol SC every three days, three injections

CN(CCCNC(=O)c1cccc(C(=O)O)c1)CCCNC(=O)c1cc(NC(=O)c2cc(NC(=O)c3cc(NC(=O)c4nc(NC(=O)[C@H](N)CCNC(=O)c5cc(NC(=O)c6cc(NC(=O)c7cc(NC(=O)c8nccn8C)cn7C)cn6C)cn5C)cn4C)cn3C)cn2C)cn1C [Polyamide 1, ImPyPyPy-2-(R)H^2Nγ-ImPyPyPy-NHMe-IPA]
binding at the other half-site of the ARE ([1]; 5′-AGTGCT-3′, single base pair mismatch site): Minimal binding
Ka ([1]; ARE consensus half-site 5′-AGAACA-3′): 8.3±1.7×10^9 M^−1
Ka ([1]; ARE half site 5′-AGAACA-3′, FIG. 8 legend): 8.3±1.7×10^9
Kd ([1]; half-site of the ARE of the PSA promoter): subnanomolar
occupancy of AR at the PSA promoter and enhancer ([2]; 1 μM as printed): decreased occupancy
AR occupancy at the PSA promoter and enhancer ([2]; 10 μM, FIG. 9 legend): decreased
Number of transcripts down-regulated (fold change ≦ −2.0) [3, 9]: 706
Number of transcripts down-regulated (fold change ≦ −4.0) [3, 9]: 126
Number of transcripts up-regulated (fold change ≧ 2.0) [3, 9]: 347
Number of transcripts up-regulated (fold change ≧ 4.0) [3, 9]: 42
number of transcripts affected by at least 2-fold ([3]; 10 μM, P≦0.01, vs DHT-induced controls): 1,053
share of interrogated transcripts affected ([3]; 10 μM, at least 2-fold): less than 2%
share of transcripts induced at least 4-fold by DHT whose expression is inhibited ([3]; LNCaP cells): ≈ 35%
number of the 88 DHT-repressed transcripts derepressed at least 2-fold ([3]; P≦0.01): eight
number of the 199 DHT-induced transcripts inhibited at least 2-fold ([3]; P≦0.01): 70
Fold-change of FKBP5 [3, 10]: −3.1
Fold-change of KLK2 [3, 10]: −2.4
Fold-change of KLK3 (PSA) [3, 10]: −3.3
Fold-change of TMPRSS2 [3, 10]: −2.3
Ka [4]: 1.9±0.8×10^10
RNAP2 occupancy at enhancer loci ([5]; DHT + 77): did not significantly change
RNAP2 occupancy across genic regions ([5]; DHT + 77, 48 h): global decrease of RNAP2 occupancy across genic regions
cytotoxicity after 24 h treatment [6]: minimal cytotoxicity is seen at 24 h
tumor weight, mean [7, 11]: 112 mg
tumor weight, median [7, 11]: 94 mg
tumor weight, range [7, 11]: 47 to 201 mg
body weight, LNCaP tumor-bearing NSG mice ([7]; 20 nmol, three injections): exhibited weight loss
distress and weight, tumor-free NSG mice ([7]; 20 nmol, three injections): no signs of distress or weight loss
reduction of tumor growth ([7]; after three rounds of treatment, vs vehicle): 64%
serum PSA post-treatment ([7]; compared to vehicle): lower
immunohistological analysis of tumors ([7]; mouse, in vivo): evidence of cell death by TUNEL stain
serum uric acid ([7]; tumor bearing mice, vs vehicle and non-tumor bearing treated mice): increases serum uric acid
tolerability, behavior and morbidity after single SC dose ([8]; 1, 3, 10 mg/kg): no change in behavior and appearance
weight loss after single SC dose ([8]; 1, 3, 10 mg/kg, 9 days): significant weight loss only at 10 mg/kg
liver histopathology ([8]; single SC 3 mg/kg): Mild hepatocellular necrosis and apoptosis
kidney histopathology ([8]; single SC 10 mg/kg): Milder tubular regeneration and karyomegaly
liver histopathology ([8]; single SC 10 mg/kg): Mild hepatocellular necrosis and apoptosis
serum kidney markers creatinine and BUN ([8]; single SC dose): not observed for any dose level
serum liver markers AST, ALT, total bilirubin ([8]; single SC dose): significant elevation of AST, ALT, and total bilirubin at 10 mg/kg, indicative of acute damage to liver cells, and moderate elevation of ALT at 3 mg/kg
